The record followed here is PubChem BioAssay (NCI).

In general, TGI refers to the concentration giving total growth inhibition.

What all share (assay): DTP human tumour cell line panel, 48 h
Assay [1] deals with A498 renal.
Assay [2] relates to ACHN renal.
For assay [3], the system named is HCT-15 colon.
The test system of assay [4] is HT29 colon.
Assay [5] concerns KM12 colon.
For assay [6], the system named is M14 melanoma.
For assay [7], the system named is MCF7 breast.
The test system of assay [8] is SF-295 CNS.
Assay [9] relates to SK-MEL-28 melanoma.
In assay [10] the test system is SK-OV-3 ovarian.

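Following 48 hours of exposure in 96-well plates, responses at five concentrations were used to interpolate endpoints linearly. TGI denotes the concentration required for complete inhibition of growth.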 Where a SMILES comes first, the peptide text is derived from it. The star is where a group is joined. Boc = CC(C)(C)OC(=O)* Bounds are passed on as bounds.

Turning to `Nn1c(Nc2ccc(S(N)(=O)=O)cc2)nnc(/C=C/c2c(O)ccc3ccccc23)c1=O`, the TGI was 73.6 µM in assay [1]; greater than 100 µM in [2]; 30.4 µM in assay [3]; 42.6 µM in assay [4]; 52.2 µM in assay [5]; 69.8 µM in assay [6]. Further, the TGI is 43 µM in assay [7], 96.8 µM in assay [8], 53.5 µM in assay [9] and 88.5 µM in assay [10].

For the compound `Cc1nn(C(=O)c2ccccc2O)c2c1C(c1ccc(O)cc1O)SC(N)=N2` (stereo not given), the TGI in assay [1], in assay [2], in assay [3], in assay [4], in assay [5] and in assay [6] was greater than 10 µM each time. The TGI in assay [7], in [8], in [9] and in assay [10] was greater than 10 µM each time.

As for `C/C=C1/CN2CCC34c5ccccc5N(C)C23C2CC1C4(C(=O)OC)C(OC(C)=O)O2` (stereo not given), the TGI in [1], in assay [2], in [3], in assay [4], in [5] and in assay [6] was greater than 100 µM in each case. In addition, the TGI in assay [7], in assay [8], in assay [9] and in assay [10] was greater than 100 µM in each case.

Consider `CCOC(=O)/C=C(/C(=O)OCC)n1cc(C)c(=O)n(Cc2cnnn2COCCOC(C)=O)c1=O`, for which the TGI in assay [1] was 90 µM; in [2], 16.5 µM; in assay [3], greater than 49.1 µM; in assay [4] it was 27.6 µM; in [5], 56.2 µM; in assay [6], 31.8 µM. Besides, the concentration for total growth inhibition (TGI) in assay [7] was 36 µM; in assay [8] it was greater than 100 µM; in [9], 47.5 µM; in assay [10], greater than 100 µM.

For the compound `Cc1c(C(=O)O)n2c(=S)[nH]nc2c2ccccc12`, the concentration for total growth inhibition (TGI) in [1], in assay [2], in [3], in assay [4], in [5] and in assay [6] was greater than 100 µM throughout. Also, the TGI in assay [7], in assay [8], in [9] and in assay [10] was greater than 100 µM in each case.

For the compound `COc1ccc(-n2c(SC(CN3CCOCC3)CN3CCCC3=O)nc3ccccc3c2=O)cc1` (stereo not given), the TGI in assay [1], in assay [2], in assay [3], in assay [4], in assay [5] and in assay [6] was greater than 100 µM each time. For the same compound, the TGI in assay [7], in [8], in assay [9] and in [10] was greater than 100 µM throughout.

Take `COC(=O)CNC(=O)C(Cc1ccccc1)NC(=O)c1ccc(-c2ccc(Cl)cc2Cl)o1` (stereo not given): the total growth inhibition concentration (TGI) was 38.8 µM in [1]; 66.5 µM in [2]; 89.4 µM in assay [3]; 52.7 µM in [4]; 91.2 µM in assay [5]; greater than 100 µM in [6]. Also, the TGI in assay [7] was 62.1 µM; in assay [8] it was 64.3 µM; in [9] it was greater than 100 µM; in assay [10], 84.2 µM.

For `Cc1nnc(N)nc1/C=C\c1ccc(Cl)cc1Cl`, the total growth inhibition concentration (TGI) in assay [1] is greater than 100 µM; in [2], greater than 100 µM; in assay [3] it was greater than 100 µM; in assay [4], 41.7 µM; in assay [5], 32.6 µM; in assay [6] it was 85.3 µM. For the same compound, the concentration for total growth inhibition (TGI) in assay [7] was greater than 100 µM; in assay [8], 53.8 µM; in assay [9], greater than 100 µM; in assay [10], greater than 100 µM.

On to `CNC(=O)N(CCC#N)CCN(C(=O)NC)c1ccccc1`, for which the TGI in [1], in [2], in assay [3], in assay [4], in assay [5] and in [6] was greater than 100 µM throughout. Further, the TGI in [7], in [8], in [9] and in assay [10] was greater than 100 µM each time.

On to `Cc1ncc([N+](=O)[O-])n1CC[N+](C)([O-])CCCCn1ccnc1[N+](=O)[O-]` (stereo not given), for which the TGI in assay [1], in assay [2], in [3], in assay [4], in assay [5] and in assay [6] was greater than 100 µM in each case. The TGI in assay [7], in assay [8], in [9] and in assay [10] was greater than 100 µM throughout.

Regarding `N[C@H]1c2c(Br)sc(Br)c2C(=O)[C@H]1O`, the concentration for total growth inhibition (TGI) in [1] was greater than 100 µM; in [2], greater than 64.6 µM; in [3], 24.3 µM; in [4], 30.8 µM; in [5] it was greater than 100 µM; in assay [6], 48.4 µM. Besides, the TGI in assay [7] was determined as 34.8 µM; in assay [8], 51.1 µM; in assay [9], 26.7 µM; in assay [10], 38.3 µM.

For the compound `CCC(=O)Nc1cccc(N=Cc2ccc(OC(=O)/C=C\c3ccccc3)cc2)c1`, the TGI in assay [1], in [2], in assay [3], in assay [4], in assay [5] and in [6] was greater than 75 µM in each case. The TGI in [7], in assay [8], in assay [9] and in assay [10] was greater than 75 µM each time.

`O=c1c2c3c(sc2nc2n1N=CN(c1ccccc1)C2)CCCC3`: the concentration for total growth inhibition (TGI) in assay [1], in assay [2], in assay [3], in assay [4], in assay [5] and in assay [6] was greater than 100 µM throughout. Besides, the TGI in assay [7], in assay [8], in assay [9] and in [10] was greater than 100 µM throughout.

Regarding `O=C1/C(=C/c2ccc(O)cc2)CCCC1CN1CCCCC1` (stereo not given), the TGI was found to be 20.4 µM in assay [1]; 3.11 µM in assay [2]; 2.71 µM in [3]; 6.91 µM in assay [4]; 4.93 µM in assay [5]; 8.07 µM in [6]. Also, the TGI in [7] stood at 6.49 µM; in [8], 29.9 µM; in [9] it was 10.6 µM; in [10], 30.4 µM.

For `CSc1cc(Cl)c(C)cc1S(=O)(=O)NC(=O)NNc1ccc(F)cc1`, the TGI in assay [1], in assay [2], in [3], in assay [4], in assay [5] and in [6] was greater than 100 µM in each case. In addition, the TGI in [7], in assay [8], in assay [9] and in [10] was greater than 100 µM each time.

In the case of `COC(=O)Nc1nc2ccc(S(=O)(=O)Nc3ccccn3)cc2[nH]1`, the TGI in [1], in assay [2], in [3], in assay [4], in assay [5] and in assay [6] was greater than 100 µM throughout. In addition, the TGI in [7] was greater than 100 µM; in assay [8], greater than 100 µM; in assay [9], 56.2 µM; in [10], greater than 100 µM.

For the compound `Cc1ccc(S(=O)(=O)N2CCC[C@@H]2C(=O)O[C@@H]2CCC3CC=CC32)cc1` (stereo not given in full), the TGI in [1] is 81.1 µM; in assay [2] it was greater than 100 µM; in assay [3], greater than 100 µM; in [4], greater than 100 µM; in [5] it was greater than 100 µM; in [6] it was greater than 100 µM. Besides, the TGI is greater than 100 µM in [7], greater than 100 µM in assay [8], greater than 100 µM in assay [9] and 48.3 µM in assay [10].

With `C=C(C)[C@@H](O)[C@H](O)C[C@H](C)C1CC[C@]2(C)C1=CC[C@@H]1[C@@]3(C)CC[C@@H](OC(C)=O)C(C)(C)[C@@H]3C[C@@H](OC3OC(COC(C)=O)C(O)C(O)C3O)[C@]12C` (stereo not given in full), the TGI in assay [1] worked out at 10.4 µM; in assay [2] it was 6.36 µM; in assay [3], 11.7 µM; in [4] it was 4.04 µM; in [5] it was 2.95 µM; in [6], 7.38 µM. In addition, the concentration for total growth inhibition (TGI) in assay [7] amounted to 8.82 µM; in assay [8] it was 4.69 µM; in assay [9] it was 6.08 µM; in assay [10], 10.4 µM.

Turning to `O=C1c2cc(I)ccc2N2CCN=C2N1Cc1ccccc1`, the TGI was 94.1 µM in assay [1]; greater than 100 µM in assay [2]; greater than 100 µM in assay [3]; greater than 100 µM in assay [4]; greater than 100 µM in [5]; greater than 100 µM in assay [6]. The TGI in assay [7], in assay [8], in assay [9] and in assay [10] was greater than 100 µM in each case.

With `Cn1c2ccc(F)cc2c2ccc3c(c21)C(=O)C=CC3=O`, the TGI was greater than 100 µM in assay [1]; 13.7 µM in assay [2]; 28.3 µM in assay [3]; 49.2 µM in assay [4]; greater than 91.9 µM in assay [5]; 27.3 µM in [6]. Besides, the TGI in assay [7] is 16.5 µM; in assay [8], greater than 100 µM; in assay [9], 28.5 µM; in assay [10], greater than 100 µM.

Turning to `COc1cc(C2S/C(=C/c3ccccc3)C(=O)N2Cc2ccccc2)cc(OC)c1OC` (stereo not given), the TGI in assay [1], in assay [2], in assay [3], in assay [4], in assay [5] and in assay [6] was greater than 100 µM in each case. The TGI in assay [7], in [8], in [9] and in [10] was greater than 100 µM each time.

With `CN1CCN(C(=O)CCC(=O)Nc2cc3c(c4ccccc24)-c2ccc4ccccc4c2C3)CC1`, the TGI in [1] came to 27.6 µM; in assay [2] it was 3.78 µM; in [3] it was 3.68 µM; in assay [4], 3.23 µM; in assay [5], 3.2 µM; in assay [6], 2.97 µM. The concentration for total growth inhibition (TGI) in assay [7] turned out to be 3.03 µM; in [8], 3.4 µM; in assay [9], 3.26 µM; in assay [10], 3.09 µM.

As for `COC1=C[C@]2(CCC(=O)O2)[C@@H]2Cc3ccccc3[C@H](O)[C@@H]2C1=O`, the TGI in assay [1], in [2], in assay [3], in [4], in assay [5] and in assay [6] was greater than 100 µM throughout. For the same compound, the TGI in assay [7], in [8], in assay [9] and in assay [10] was greater than 100 µM throughout.

Take `Clc1ccc(CCNC2(c3cc4ccccc4s3)CCCCC2)cc1Cl`: the total growth inhibition concentration (TGI) in assay [1] is 39.9 µM; in [2], 63.3 µM; in assay [3] it was 37.7 µM; in assay [4] it was 87.1 µM; in [5], 61.8 µM; in assay [6], greater than 100 µM. In addition, the TGI in [7] was 33.5 µM; in assay [8] it was 84.3 µM; in assay [9] it was 87.2 µM; in assay [10] it was greater than 100 µM.

Regarding `COC(=O)C(Cc1ccccc1)NC(=O)C(CS)NC(=O)OC(C)(C)C` (stereo not drawn) (Boc-Cys-Phe-OMe; configuration not given here), the TGI in assay [1], in assay [2], in assay [3], in assay [4], in assay [5] and in assay [6] was greater than 100 µM throughout. Besides, the TGI in assay [7], in assay [8], in assay [9] and in assay [10] was greater than 100 µM in each case.
